Test results published in ChEMBL document CHEMBL4196146, “Targeted Isolation of Neuroprotective Dicoumaroyl Neolignans and Lignans from Sageretia theezans Using in Silico Molecular Network Annotation Propagation-Based Dereplication” (J Nat Prod, 2018).
The source made the active and inactive calls. The rule behind the calls is not given here.

How the values were obtained:
HT-22 [1] = assay: Cytotoxicity against mouse HT22 cells assessed as effect on cell viability at >25 uM after 2 hrs by MTT assay; format: cell-based; conditions: ht-22, 2 h
HT-22 [2] = assay: Neuroprotective activity against glutamate-induced cell death in mouse HT22 cells assessed as increase in cell viability at 1.6 uM pretreated for 2 hrs followed by glutamate-challenge and measured after 20 hrs by MTT assay (reference value: 23 +/- 3.57%); format: functional, cell-based
HT-22 [3] = assay: Neuroprotective activity against glutamate-induced cell death in mouse HT22 cells assessed as cell viability at 12.5 uM pretreated for 2 hrs followed by glutamate-challenge and measured after 20 hrs by MTT assay (reference value: 23 +/- 3.57%); format: functional; conditions: for viability at 12.5 µM: read-out: Activity

COc1cc(C[C@@H](COC(=O)/C=C/c2ccc(O)cc2)[C@H](COC(=O)/C=C/c2ccc(O)cc2)Cc2ccc(O)c(OC)c2)ccc1O
Activity (HT-22 [1]): Toxic | Activity (HT-22 [2]): Active | viability at 12.5 µM (HT-22 [3]): 63%

COc1cc([C@H](O)[C@H](COC(=O)/C=C/c2ccc(O)cc2)Oc2ccc(/C=C/COC(=O)/C=C/c3ccc(O)cc3)cc2OC)ccc1O
Activity (HT-22 [1]): Toxic | Activity (HT-22 [2]): Active | Activity (HT-22 [3]): Active

COc1cc([C@@H](O)[C@H](COC(=O)/C=C\c2ccc(O)cc2)Oc2ccc(/C=C/COC(=O)/C=C/c3ccc(O)cc3)cc2OC)ccc1O
Activity (HT-22 [1]): Toxic | Activity (HT-22 [2]): Active | Activity (HT-22 [3]): Active

COc1cc([C@@H](O)[C@H](COC(=O)/C=C/c2ccc(O)cc2)Oc2ccc(/C=C/COC(=O)/C=C/c3ccc(O)cc3)cc2OC)ccc1O
Activity (HT-22 [1]): Toxic | Activity (HT-22 [2]): Active | Activity (HT-22 [3]): Active

COc1cc(C[C@@H](COC(=O)/C=C\c2ccc(O)cc2)[C@H](COC(=O)/C=C/c2ccc(O)cc2)Cc2ccc(O)c(OC)c2)ccc1O
Activity (HT-22 [1]): Toxic | Activity (HT-22 [2]): Active | viability at 12.5 µM (HT-22 [3]): 73%

COc1cc([C@H](O)[C@H](COC(=O)/C=C/c2ccc(O)cc2)Oc2ccc(/C=C/COC(=O)/C=C\c3ccc(O)cc3)cc2OC)ccc1O
Activity (HT-22 [1]): Toxic | Activity (HT-22 [2]): Active | Activity (HT-22 [3]): Active

COc1cc(C[C@@H](COC(=O)/C=C\c2ccc(O)cc2)[C@H](COC(=O)/C=C\c2ccc(O)cc2)Cc2ccc(O)c(OC)c2)ccc1O
Activity (HT-22 [1]): Toxic | Activity (HT-22 [2]): Active | viability at 12.5 µM (HT-22 [3]): 74%

COc1cc([C@@H](O)[C@H](COC(=O)/C=C/c2ccc(O)cc2)Oc2ccc(/C=C/COC(=O)/C=C\c3ccc(O)cc3)cc2OC)ccc1O
Activity (HT-22 [1]): Toxic | Activity (HT-22 [2]): Active | Activity (HT-22 [3]): Active

Cc1c(C)c2c(c(C)c1O)CCC(C)(C(=O)O)O2 (stereo not drawn) [TROLOX]
viability at 12.5 µM (HT-22 [3]): 52%

COc1cc([C@H](O)[C@H](COC(=O)/C=C\c2ccc(O)cc2)Oc2ccc(/C=C/COC(=O)/C=C/c3ccc(O)cc3)cc2OC)ccc1O
Activity (HT-22 [1]): Toxic | Activity (HT-22 [2]): Active | Activity (HT-22 [3]): Active
